US20050131463A1, “Perfusion chamber for recording evoked and spontaneous electrical activity from submerged acute brain slices” (priority 2003, published 2005)

Test system: str. radiatum CA1 region of rat hippocampal slices (LTP)
Test: LTP test (40 Hz theta burst tetanization) in submerged hippocampal slices, field EPSP recording in multi-chamber device
Type: cell-based
Conditions: 40 Hz×4×10 theta burst, p<0.01, 4 rats, 12 slices
Description: A twelve-chamber assembly of chambers according to the embodiment of the invention described in Example 1 is prepared for measurement of twelve slices simultaneously. Each chamber is prepared such that the top ends of the electrodes are placed 50 μm below the bottom net. Bipolar stimulation is utilized and the distance between electrodes is set to 100 μm. Such an assembly with fixed electrodes may be utilized for numerous experiments without readjustment of the electrodes. Individual chambers in the assembly may be replaced as necessary with new chambers. Electrophysiology experiments are performed on a 6-month old male rat. 400 μm hippocampal slices from the rat are prepared using a VIBROTOMETM (vibroslicer WPI; World Precision Instruments) to assure precise thickness. Slices were incubated for 2 hours at room temperature in a perfusion solution containing, in mM, 119 NaCl, 2.5 KCl, 2.5 CaCl2, 1.3 MgSO4, 1.25 NaH2PO4, 26.0 NaHCO3, 10 glucose and equilibrated with 95% O2 and 5% CO2 (pH 7.3-7.4) at room temperature. […] Simultaneous recording from the twelve slices is measured using electrophysiological software, […] […] 30 seconds after the single tetanus, baseline is continued to be collected as before and LTP was measured 60 minutes after tetanization. […] LOGEC 50 values are determined using Prizm4 software (Graphpad).

## COc1ccc(C2CNC(=O)C2)cc1OC1CCCC1 (centres unmarked) [rolipram]
Rolipram 1 μM in perfusion fluid
  % of facilitation of the LTP 60 minutes after tetanic stimulation: significant
Rolipram 10 μM in perfusion fluid
  % of facilitation of the LTP 60 minutes after tetanic stimulation: significant
